Measurements as given in patent publication US20040063662A1, “Selenophene anti-tumor agents” (priority 1996, published 2004).

Tests used:
[1] = system: HL-60(TB); assay: NCI human tumor cell panel: HL-60(TB) (Leukemia); type: cell-based
[2] = system: K-562; assay: NCI human tumor cell panel: K-562 (Leukemia); type: cell-based
[3] = system: RPMI-8226; assay: NCI human tumor cell panel: RPMI-8226 (Leukemia); type: cell-based
[4] = system: EKVX; assay: NCI human tumor cell panel: EKVX (Non-Small Cell Lung Cancer); type: cell-based
[5] = system: NCI-H226; assay: NCI human tumor cell panel: NCI-H226 (Non-Small Cell Lung Cancer); type: cell-based
[6] = system: COLO 205; assay: NCI human tumor cell panel: COLO 205 (Colon Cancer); type: cell-based
[7] = system: HCC-2998; assay: NCI human tumor cell panel: HCC-2998 (Colon Cancer); type: cell-based
[8] = system: HCT-15; assay: NCI human tumor cell panel: HCT-15 (Colon Cancer); type: cell-based
[9] = system: KM12; assay: NCI human tumor cell panel: KM12 (Colon Cancer); type: cell-based
[10] = system: SW-620; assay: NCI human tumor cell panel: SW-620 (Colon Cancer); type: cell-based
[11] = system: SF-268; assay: NCI human tumor cell panel: SF-268 (CNS Cancer); type: cell-based
[12] = system: LOX IMVI; assay: NCI human tumor cell panel: LOX IMVI (Melanoma); type: cell-based
[13] = system: SK-MEL-2; assay: NCI human tumor cell panel: SK-MEL-2 (Melanoma); type: cell-based
[14] = system: OVCAR-5; assay: NCI human tumor cell panel: OVCAR-5 (Ovarian Cancer); type: cell-based
[15] = system: OVCAR-8; assay: NCI human tumor cell panel: OVCAR-8 (Ovarian Cancer); type: cell-based
[16] = system: SK-OV-3; assay: NCI human tumor cell panel: SK-OV-3 (Ovarian Cancer); type: cell-based; details: SK-OV-3, read-out: Log10 GI50 (converted)
[17] = system: 786-0; assay: NCI human tumor cell panel: 786-0 (Renal Cancer); type: cell-based
[18] = system: CAKI-1; assay: NCI human tumor cell panel: CAKI-1 (Renal Cancer); type: cell-based
[19] = system: RXF-393; assay: NCI human tumor cell panel: RXF-393 (Renal Cancer); type: cell-based
[20] = system: SN12C; assay: NCI human tumor cell panel: SN12C (Renal Cancer); type: cell-based
[21] = system: UO-31; assay: NCI human tumor cell panel: UO-31 (Renal Cancer); type: cell-based
[22] = system: DU-145; assay: NCI human tumor cell panel: DU-145 (Prostate Cancer); type: cell-based
[23] = system: MDA-MB-231/ATCC; assay: NCI human tumor cell panel: MDA-MB-231/ATCC (Breast Cancer); type: cell-based; details: Homo sapiens, MDA-MB-231, MDA-MB-231/ATCC
[24] = system: BT-549; assay: NCI human tumor cell panel: BT-549 (Breast Cancer); type: cell-based
[25] = system: T-47D; assay: NCI human tumor cell panel: T-47D (Breast Cancer); type: cell-based; details: T47D
[26] = system: NCI-H522; assay: NCI human tumor cell panel: NCI-H522 (Non-Small Cell Lung Cancer)
[27] = system: panel of sixty different human tumor cell lines; assay: NCI human tumor cell panel: whole panel (mean graph summary); details: whole panel
[28] = read-out: Log10 GI50 (converted)
[29] = read-out: Log10 TGI (converted)

For `OCc1ccc(-c2ccc(-c3ccc(CO)s3)[se]2)s1` [compound 675343], the GI50 [1, 28] was 61.7 µM, the IC (TGI) ([1]; read-out: Log10 TGI) was > 100 µM and the GI50 ([2]; K562, K-562, read-out: Log10 GI50 (converted)) was < 0.01 µM. For the same compound, the IC (TGI) ([2]; K562, K-562, read-out: Log10 TGI (converted)) was 26.3 µM, the GI50 ([3]; RPMI-8226, read-out: Log10 GI50 (converted)) was > 100 µM and the IC (TGI) ([3]; RPMI-8226, read-out: Log10 TGI) was > 100 µM. For the same compound, the GI50 [4, 28] was > 100 µM, the IC (TGI) [4, 29] was > 100 µM and the GI50 ([5]; NCI-H226, read-out: Log10 GI50 (converted)) was < 0.01 µM. For the same compound, the IC (TGI) ([5]; NCI-H226, read-out: Log10 TGI (converted)) was 0.0724 µM, the GI50 ([6]; COLO 205, read-out: Log10 GI50 (converted)) was < 0.01 µM and the IC (TGI) ([6]; COLO 205, read-out: Log10 TGI (converted)) was 1.05 µM. For the same compound, the GI50 ([7]; HCC-2998, read-out: Log10 GI50 (converted)) was < 0.01 µM, the IC (TGI) ([7]; HCC-2998, read-out: Log10 TGI (converted)) was 3.39 µM and the GI50 ([8]; HCT-15, read-out: Log10 GI50 (converted)) was > 100 µM. For the same compound, the IC (TGI) ([8]; HCT-15, read-out: Log10 TGI (converted)) was > 100 µM, the GI50 ([9]; KM12, read-out: Log10 GI50 (converted)) was > 100 µM and the IC (TGI) ([9]; KM12, read-out: Log10 TGI (converted)) was > 100 µM. The GI50 ([10]; SW-620, read-out: Log10 GI50 (converted)) was < 0.01 µM, the IC (TGI) ([10]; SW-620, read-out: Log10 TGI (converted)) was > 100 µM and the GI50 ([11]; SF-268, read-out: Log10 GI50 (converted)) was > 100 µM. The IC (TGI) ([11]; SF-268, read-out: Log10 TGI (converted)) was > 100 µM, the GI50 [12, 28] was > 100 µM and the IC (TGI) [12, 29] was > 100 µM. For the same compound, the GI50 ([13]; SK-MEL-2, read-out: Log10 GI50 (converted)) was > 100 µM, the IC (TGI) ([13]; SK-MEL-2, read-out: Log10 TGI (converted)) was > 100 µM and the GI50 ([14]; OVCAR-5, read-out: Log10 GI50 (converted)) was 0.158 µM. The IC (TGI) ([14]; OVCAR-5, read-out: Log10 TGI (converted)) was > 100 µM, the GI50 ([15]; OVCAR-8, read-out: Log10 GI50 (converted)) was < 0.01 µM and the IC (TGI) ([15]; OVCAR-8, read-out: Log10 TGI (converted)) was > 100 µM. The GI50 [16] was > 100 µM, the GI50 ([17]; 786-0, read-out: Log10 GI50 (converted)) was > 100 µM and the IC (TGI) ([17]; 786-0, read-out: Log10 TGI (converted)) was > 100 µM. The GI50 ([18]; CAKI-1, read-out: Log10 GI50 (converted)) was < 0.01 µM, the IC (TGI) ([18]; CAKI-1, read-out: Log10 TGI (converted)) was < 0.01 µM and the GI50 ([19]; RXF-393, read-out: Log10 GI50 (converted)) was 20.9 µM. The IC (TGI) ([19]; RXF-393, read-out: Log10 TGI (converted)) was > 100 µM, the GI50 [20, 28] was > 100 µM and the IC (TGI) [20, 29] was > 100 µM. The GI50 ([21]; UO-31, read-out: Log10 GI50 (converted)) was > 100 µM, the IC (TGI) ([21]; UO-31, read-out: Log10 TGI (converted)) was > 100 µM and the GI50 ([22]; DU-145, read-out: Log10 GI50 (converted)) was > 100 µM. The IC (TGI) ([22]; DU-145, read-out: Log10 TGI (converted)) was > 100 µM, the GI50 [23, 28] was > 100 µM and the IC (TGI) [23, 29] was > 100 µM. For the same compound, the GI50 ([24]; BT-549, read-out: Log10 GI50 (converted)) was > 100 µM, the IC (TGI) ([24]; BT-549, read-out: Log10 TGI (converted)) was > 100 µM and the GI50 [25, 28] was 0.724 µM. For the same compound, the IC (TGI) [25, 29] was > 100 µM, the GI50 ([26]; NCI-H522, read-out: Log10 GI50 (converted)) was ≥ 100 µM and the IC (TGI) ([26]; NCI-H522, read-out: Log10 TGI) was > 100 µM. The “Log10 GI50, Delta” value [27] was −5.36, the “Log10 LC50, Delta” value [27] was −4.06 and the “Log10 TGI, Delta” value [27] was −4.41. For the same compound, the “Log10 TGI, Range” value [27] was 3.59.
